{"source": "patent US9056139B2", "about": "“Fatty acid-salicylate conjugates with enhanced therapeutic properties” (KEAN UNIVERSITY, priority 2012, dated 2015)", "system": "HT-29 human adenocarcinoma cells", "assay": "Apoptosis induction in Human Adenocarcinoma cells (HT-29)", "format": "cell-based", "conditions": "HT-29 cells, FIG. 18 and FIG. 19", "data": [{"smiles": "CC/C=C\\C/C=C\\C/C=C\\C/C=C\\C/C=C\\C/C=C\\CCC(=O)Oc1ccccc1C(=O)O", "note": "[DHASPIR, 2-((4Z,7Z,10Z,13Z,16Z,19Z)-docosa-4,7,10,13,16,19-hexaenoyloxy)benzoic acid]", "values": [{"measurement": "pro-apoptotic effect", "value": "same pro-apoptotic effect as the DHA/acetyl salicylate combination"}]}]}
